Experimental data: PMC5786788, “Antimicrobial Octapeptin C4 Analogues Active against Cryptococcus Species” (Antimicrobial Agents and Chemotherapy, 2018)
≈ marks a conversion by molar mass, not a printed value. Where a SMILES comes first, the peptide text is derived from it. Bridges are numbered along the chain shown (N, C = ends). [ ]: non-standard residue; d: D form. The star is where a group is joined. Decanoyl(3R-OH) = CCCCCCC[C@@H](O)CC(=O)*; dDab = NCC[C@@H](N)C(=O)O; Dab = NCC[C@H](N)C(=O)O

What was measured:
[1] = system: melanized and nonmelanized C. neoformans cells; assay: In vitro time course assay of melanization effect; type: cell-based, Cryptococcus neoformans; conditions: melanin induced on L-DOPA agar vs suppressed on YPD agar; PMB at 12.5 μM, octapeptin C4 at 1.56 μM; 0-8 h; two replicates
Description: (A) Melanin suppressed C. neoformans. (B) Melanin induced C. neoformans. […] Samples from each flask were taken 0, 1, 2, 4, 6, and 8 h after inoculation, spread onto a YPD plate, and incubated at 30°C for 3 days, at which time the colonies were counted. The data represent the means of two replicates, and the error bars represent the SEM.
Melanization was induced by growth on L-DOPA agar medium at 30°C and suppressed by growth on YPD agar medium at 30°C. Cells were grown over 3 days and collected, washed twice in PBS, and then resuspended in PBS at a density of 1,500 to 2,000 cells/ml. Aliquots of the cells were treated with PMB sulfate, octapeptin C4, and the octapeptin C4 derivatives P1L, P1D, P4, P3, P4L, P4D, P5, P6, P7, and P8 at the determined MICs. At 0, 1, 2, 4, 6, and 8 h after inoculation, samples of the suspension were spread onto YPD agar and incubated at 30°C for 3 days, and the colonies were counted. The assay was repeated in duplicate, and paired sample t tests were performed in GraphPad Prism v7.0.

[2] = system: C. neoformans var. grubii; assay: organism not typed; conditions: no visible growth
Description: The MICs of the yeast strains for PMB, PME, and octapeptin C4 and its derivatives were determined in accordance with CLSI M27-A2 guidelines using YNB (Becton Dickinson, USA) medium supplemented with 10 mM ammonium sulfate and 2% glucose, a final inoculum concentration of 1.5 × 10^3 to 2.0 × 10^3 cells/ml, and incubation at 35°C for 72 h ([39]). […] The MICs for PMB, PME, and octapeptin C4 for A. fumigatus were determined in accordance with the CLSI M38-A2 guidelines ([40]) using synthetic RPMI 1640 medium (with glutamine, without bicarbonate and with phenol red; Life Technologies, USA). The final inoculum concentration was 0.4 × 10^4 to 5 × 10^4 cells/ml, with incubation at 35°C for 48 h. […] All assays were completed in triplicate. Fluconazole was used as a positive control where the MIC was determined at both 50% growth (in accordance with CLSI M27-A2 guidelines) and when there was a “no visible growth” reading. […]

[3] = system: C. neoformans var. gattii; assay: organism not typed; conditions: no visible growth
Description: (§1) The MICs of the yeast strains for PMB, PME, and octapeptin C4 and its derivatives were determined in accordance with CLSI M27-A2 guidelines using YNB (Becton Dickinson, USA) medium supplemented with 10 mM ammonium sulfate and 2% glucose, a final inoculum concentration of 1.5 × 10^3 to 2.0 × 10^3 cells/ml, and incubation at 35°C for 72 h ([39]). […] The MICs for PMB, PME, and octapeptin C4 for A. fumigatus were determined in accordance with the CLSI M38-A2 guidelines ([40]) using synthetic RPMI 1640 medium (with glutamine, without bicarbonate and with phenol red; Life Technologies, USA). The final inoculum concentration was 0.4 × 10^4 to 5 × 10^4 cells/ml, with incubation at 35°C for 48 h. […] All assays were completed in triplicate. Fluconazole was used as a positive control where the MIC was determined at both 50% growth (in accordance with CLSI M27-A2 guidelines) and when there was a “no visible growth” reading.

[4] = system: C. neoformans var. neoformans; assay: microbe, parasite or virus in culture; conditions: no visible growth
Description: as §1

human kidney-2 cell line = conditions: cited from earlier work

CCCCCCC[C@@H](O)CC(=O)N[C@H](CCN)C(=O)N[C@H]1CCNC(=O)[C@H](CC(C)C)NC(=O)[C@H](CCN)NC(=O)[C@H](CCN)NC(=O)[C@H](CC(C)C)NC(=O)[C@@H](Cc2ccccc2)NC(=O)[C@H](CCN)NC1=O [Octapeptin C4, octapeptin C4] ({Decanoyl(3R-OH)}-[dDab][Dab][Dab][dF]L[Dab][Dab]L; lactam 2-C (inferred); N-terminus assumed)
effect of melanization on fungicidal activity [1]: slightly enhanced
MIC ([2]; strain 486 (USA)): 3.13 µg/mL (≈ 3 µM)
MIC ([2]; strain 488 (AIDS+, pre-HAART USA)): 1.56 µg/mL (≈ 1.49 µM)
MIC ([2]; strain 490 (USA)): 1.56 µg/mL (≈ 1.49 µM)
MIC ([2]; strain 496 (USA)): 1.56 µg/mL (≈ 1.49 µM)
MIC ([2]; strain 500 (USA)): 1.56 µg/mL (≈ 1.49 µM)
MIC ([2]; strain 502 (ARR3+ USA)): 3.13 µg/mL (≈ 3 µM)
MIC ([2]; strain 505 (India)): 1.56 µg/mL (≈ 1.49 µM)
MIC ([2]; strain 507 (India)): 1.56 µg/mL (≈ 1.49 µM)
MIC ([2]; strain 512 (India)): 3.13 µg/mL (≈ 3 µM)
MIC ([2]; strain 516 (India)): 3.13 µg/mL (≈ 3 µM)
MIC ([2]; strain 518 (VNI India)): 1.56 µg/mL (≈ 1.49 µM)
MIC ([2]; strain 522 (India)): 3.13 µg/mL (≈ 3 µM)
MIC ([2]; strain 525 (India)): 1.56 µg/mL (≈ 1.49 µM)
MIC ([2]; strain 1188 (Japan lung)): 3.13 µg/mL (≈ 3 µM)
MIC ([2]; strain 1189 (USA BAL/HIV)): 1.56 µg/mL (≈ 1.49 µM)
MIC ([2]; strain 1194 (Italy)): 1.56 µg/mL (≈ 1.49 µM)
MIC ([2]; strain 1196 (Botswana CSF/AIDS)): 3.13 µg/mL (≈ 3 µM)
MIC ([2]; strain 1197 (Botswana CSF/AIDS)): 3.13 µg/mL (≈ 3 µM)
MIC ([2]; strain 1199 (Uganda CSF/HIV+ VNII)): 1.56 µg/mL (≈ 1.49 µM)
MIC ([2]; strain H99O (lab strain)): 1.56 µg/mL (≈ 1.49 µM)
MIC ([3]; strain ATCC 24066 (NIH 18)): 1.56 µg/mL (≈ 1.49 µM)
MIC ([3]; strain ATCC 32269): 3.13 µg/mL (≈ 3 µM)
MIC ([3]; strain ATCC 32608 (NIH 191)): 0.78 µg/mL (≈ 0.747 µM)
MIC ([3]; strain ATCC 32609 (NIH444)): 3.13 µg/mL (≈ 3 µM)
MIC ([3]; strain ATCC 34878): 3.13 µg/mL (≈ 3 µM)
MIC ([3]; strain ATCC 34882): 6.25 µg/mL (≈ 5.98 µM)
MIC ([3]; strain B5748 (VGIV HIV India)): 3.13 µg/mL (≈ 3 µM)
MIC ([3]; strain R266 (Vancouver Island)): 1.56 µg/mL (≈ 1.49 µM)
MIC ([3]; strain R267 (Vancouver Island)): 12.50 µg/mL (≈ 12 µM)
MIC ([3]; strain R268 (Vancouver Island)): 3.13 µg/mL (≈ 3 µM)
MIC ([3]; strain R269 (Vancouver Island)): 3.13 µg/mL (≈ 3 µM)
MIC ([3]; strain R270 (Vancouver Island)): 3.13 µg/mL (≈ 3 µM)
MIC ([4]; strain WM 01.127 (USA)): 1.56 µg/mL (≈ 1.49 µM)
MIC ([4]; strain WM 02.141 (Russia)): 3.13 µg/mL (≈ 3 µM)
MIC ([4]; strain WM 02.142 (Russia)): 1.56 µg/mL (≈ 1.49 µM)
MIC ([4]; strain WM 02.143 (Russia)): 3.13 µg/mL (≈ 3 µM)
MIC ([4]; strain WM 02.37 (Canada)): 1.56 µg/mL (≈ 1.49 µM)
MIC ([4]; strain WM 02.52 (Canada)): 1.56 µg/mL (≈ 1.49 µM)
MIC ([4]; strain WM 04.168 (Chile)): 1.56 µg/mL (≈ 1.49 µM)
MIC ([4]; strain WM 04.171 (Thailand, environmental)): 1.56 µg/mL (≈ 1.49 µM)
MIC ([4]; strain WM 05.467 (Brazil, environmental)): 1.56 µg/mL (≈ 1.49 µM)
MIC ([4]; strain WM 05.515 (Peru)): 1.56 µg/mL (≈ 1.49 µM)
MIC ([4]; strain WM 09.109 (Italy, environmental)): 1.56 µg/mL (≈ 1.49 µM)
MIC ([4]; strain WM 09.112 (USA)): 1.56 µg/mL (≈ 1.49 µM)
MIC ([4]; strain WM 10.119 (Australia)): 1.56 µg/mL (≈ 1.49 µM)
MIC ([4]; strain WM 629 (Australia)): 3.13 µg/mL (≈ 3 µM)
MIC ([4]; strain WM 1706 (Argentina)): 1.56 µg/mL (≈ 1.49 µM)
MIC ([4]; strain WM 1740 (Chile)): 3.13 µg/mL (≈ 3 µM)
MIC ([4]; strain WM 2207 (USA, environmental)): 1.56 µg/mL (≈ 1.49 µM)
MIC ([4]; strain WM 2242 (USA)): 1.56 µg/mL (≈ 1.49 µM)
MIC ([4]; strain WM 2530 (USA)): 3.13 µg/mL (≈ 3 µM)
50% cytotoxic concentration (human kidney-2 cell line): 31 µM
